Laboratory results: US9550763B2, “Heterocyclic ring and carbocyclic derivative” (Shionogi & Co., Ltd., priority 2012, dated 2017)

Target: human P2X3 receptor (Homo sapiens (Human), UniProt P56373)
Assay: Evaluation of human P2X3 receptor inhibitory activity (Test Example 1-2, FLIPR 384, 384-well, 150 nM ATP)
Type: cell-based
Details: C6BU-1 cell transfected with human P2X3 receptor gene; method of Test Example 1-2 (compounds I-301 to I-483); read-out: IC50 (human P2X3 receptor inhibitory activity)
Method: Stably expressing cell line (C6BU-1 cell transfected with human P2X3 receptor gene (GenBank accession number Y07683) was used. The cells were seeded in a 384-well microtiter plate at a concentration of 3000 cells/well and cultured in the medium (7.0% fetal bovine serum, 7.0% horse serum, 1% antibiotic and antifungal in DMEM) for one day at 37° C. under 5% carbon dioxide atmosphere. The medium was replaced with 4 μM Fluo-3-AM solution (20 mM HEPES, […], 5.27 mM KCl, 0.9 mM MgCl2, 1.26 mM CaCl2, 5.6 mM D-glucose, 2.5 mM probenecid, 0.5% BSA, and 0.04% Pluronic F-127, pH 7.5) and incubated at 37° C. under 5% dioxide carbon atmosphere for one hour. The plate was washed with washing buffer (20 mM HEPES, 137 mM NaCl, 5.27 mM KCl, 0.9 mM MgCl2, 1.26 mM CaCl2, 5.6 mM D-glucose, 2.5 mM probenecid, pH7.5), and each well was added with 20 μL of this buffer. The plate was placed in High-Throughput Screening System FLIPR 384 (Molecular Device Co.). Measurement of fluorescence intensity by FLIPR 384 was started, and 20 μL of DMSO solutions containing different concentrations of the test compound as prepared by dilution with dilution buffer (20 mM HEPES, 137 mM NaCl, 5.27 mM KCl, 0.9 mM MgCl2, 1.26 mM CaCl2, 5.6 mM D-glucose, 2.5 mM probenecid, 0.1% Pluronic F-127, pH 7.5) were dispensed to each well through the built-in automatic dispenser. Five minutes after, 150 nM ATP solution (25 μL) prepared by dilution with the dilution buffer was dispensed through the built-in automatic dispenser, and the measurement of fluorescence intensity was continued for 4 min. For each well, the specific maximum fluorescence intensity was calculated as the ratio of the maximum fluorescence intensity after addition of the ATP solution to the fluorescence intensity at the starting of the measurement. The 50% inhibitory concentration (IC50) was calculated under the assumption that the specific maximum fluorescence intensity without test compound is 0% inhibition and that the specific maximum fluorescence intensity when the dilution buffer was added in place of ATP solution is 100% inhibition, to evaluate the inhibitory activity of the test compound. The specific maximum fluorescence intensity and IC50 were calculated using Spotfire (Science & Technology Systems, Inc.)
The data of the compounds I-001 to I-300 are the results by the method mentioned in Test Example 1-1, and the data of the compounds I-301 to I-483 are the results by the method mentioned in Test Example 1-2.

human P2X3 receptor, sequence (P56373 whole entry): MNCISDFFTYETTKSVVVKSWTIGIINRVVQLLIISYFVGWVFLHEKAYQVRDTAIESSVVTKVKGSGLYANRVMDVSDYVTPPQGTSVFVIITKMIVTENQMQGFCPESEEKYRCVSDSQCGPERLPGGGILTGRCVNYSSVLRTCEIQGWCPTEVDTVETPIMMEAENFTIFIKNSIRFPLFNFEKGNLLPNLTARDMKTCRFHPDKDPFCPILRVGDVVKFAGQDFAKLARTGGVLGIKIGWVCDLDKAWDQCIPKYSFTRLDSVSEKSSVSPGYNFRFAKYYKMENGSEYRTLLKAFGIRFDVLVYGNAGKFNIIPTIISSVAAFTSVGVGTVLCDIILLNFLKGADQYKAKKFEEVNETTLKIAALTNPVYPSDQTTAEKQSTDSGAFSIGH

`CN(C)c1ccc(Nc2ccc(Oc3ccc(F)cn3)cc2)c(Cc2ccc(Cl)cc2)c1` [Compound I-464, 1-(4-chlorobenzyl)-3-dimethylamino-6-[4-(5-fluoro-2-pyridyloxy)phenylamino]benzene] was tested. Which IC50 did it give?
Its IC50 is < 30000 nM.

Same assay, conditions: human P2X3 receptor in C6BU-1 cells; Test Example 1-2 (compounds I-301 to I-483); read-out: P2X3 IC50

For `CC(C)(C)c1c[nH]/c(=N\c2ccc(Oc3cccc(C(N)=O)n3)cc2)n(Cc2ccc(Cl)cc2)c1=O` [Compound I-482], which IC50 is on record?
Its IC50 is 251 nM.

Which IC50 does the source give for `COC(=O)CCCn1c(=O)cc(Nc2ccc(Oc3ccc(F)cn3)c(C)n2)n(Cc2ccc(Cl)cc2)c1=O` [Compound I-360] here?
The IC50 was 6 nM.

For `COc1cn(Cc2ccc(Cl)cc2)c(Nc2ccc(Oc3cccc(C(N)=O)n3)cc2)nc1=O` [Compound I-403], which IC50 is on record?
Its IC50 is 243 nM.

Which IC50 does the source give for `C#CCNC(=O)c1c[nH]/c(=N\c2ccc(Oc3cccc(F)n3)cc2)n(Cc2ccc(Cl)cc2)c1=O` [Compound I-406] here?
Its IC50 is 8 nM.

How did the IC50 turn out when `O=C(NCC(F)(F)F)c1c[nH]/c(=N\c2ccc(Oc3ccon3)cc2)n(Cc2ccc(Cl)cc2)c1=O` [Compound I-452] was run?
Its IC50 is 98 nM.

For `Cc1nnc(-c2c[nH]/c(=N\c3ccc(Oc4ccon4)cc3)n(Cc3ccc(Cl)cc3)c2=O)o1` [Compound I-349], which IC50 is on record?
Its IC50 is 73 nM.

For `COc1cn(Cc2ccc(Cl)cc2)c(Nc2ccc(Oc3cccc(F)n3)cc2)nc1=O` [Compound I-351, 1-(4-chlorobenzyl)-2-[4-(6-fluoro-2-pyridyloxy)phenylamino]-5-methoxypyrimidin-4(1H)-one], which IC50 is on record?
The IC50 was 98 nM.

Which IC50 does the source give for `O=c1c(Nc2ccon2)c[nH]/c(=N\c2ccc(Oc3ccon3)cc2)n1Cc1ccc(Cl)cc1` [Compound I-307] here?
Its IC50 is 21 nM.

Which IC50 does the source give for `CCCn1c(=O)cc(Nc2ccc(Oc3cccc(C(=O)O)c3)c(C)n2)n(Cc2ccc(C)cc2)c1=O` [Compound I-474] here?
The IC50 was 5 nM.

With `CC1(NC(=O)c2cn(Cc3ccc(Cl)cc3)c(Nc3ccc(Oc4cccc(F)n4)cc3)nc2=O)CCOCC1` [Compound I-385] as the molecule, how does the IC50 read?
Its IC50 is 16 nM.

For `COC(=O)[C@H](C)[C@H](C)n1c(=O)cc(Nc2ccc(Oc3ccc(F)nc3)c(C)n2)n(Cc2ccc(Cl)cc2)c1=O` [Compound I-338], which IC50 is on record?
Its IC50 is 9 nM.

How did the IC50 turn out when `O=C(NCc1ccco1)c1cn(Cc2ccc(Cl)cc2)c(Nc2ccc(Oc3cccc(F)n3)cc2)nc1=O` [Compound I-369] was run?
Its IC50 is 120 nM.

`COC(=O)C(C)(C)Cn1c(=O)cc(Nc2ccc(Oc3ccc(F)cn3)c(C)n2)n(C[C@H]2CC[C@H](C)CC2)c1=O` [Compound I-444] was tested. Which IC50 did it give?
The IC50 was 9 nM.

How did the IC50 turn out when `CC(=O)OCc1nnc(-c2c[nH]/c(=N\c3ccc(Oc4ccon4)cc3)n(Cc3ccc(Cl)cc3)c2=O)o1` [Compound I-348] was run?
Its IC50 is 76 nM.

With `COC(=O)c1ccc(Oc2ccc(/N=c3\[nH]cc(C(C)C)c(=O)n3Cc3ccc(Cl)cc3)cc2)nc1` [Compound I-366] as the molecule, how does the IC50 read?
The IC50 was 91 nM.

For `C[C@@H](C(=O)O)[C@H](C)n1c(=O)cc(Nc2ccc(Oc3ccc(F)cn3)cc2)n(Cc2ccc(Cl)cc2)c1=O` [Compound I-325], which IC50 is on record?
Its IC50 is 11 nM.

How did the IC50 turn out when `O=C(O)c1cccc(Oc2ccc(/N=c3\[nH]cc(Br)c(=O)n3Cc3ccc(Cl)cc3)cc2)n1` [Compound I-440] was run?
Its IC50 is 15 nM.

For `CCC(=O)Nc1c[nH]/c(=N\c2ccc(Oc3cccc(CCC(=O)O)c3)cc2)n(Cc2ccc(Cl)cc2)c1=O` [Compound I-337], which IC50 is on record?
Its IC50 is 76 nM.

How did the IC50 turn out when `NC(=O)[C@H](CO)NC(=O)c1cn(Cc2ccc(Cl)cc2)c(Nc2ccc(Oc3cccc(F)n3)cc2)nc1=O` [Compound I-375] was run?
The IC50 was 4 nM.

Which IC50 does the source give for `O=C(O)c1coc(-c2c[nH]/c(=N\c3ccc(Oc4ccon4)cc3)n(Cc3ccc(Cl)cc3)c2=O)n1` [Compound I-454] here?
The IC50 was 160 nM.

With `NC(=O)c1noc(-c2c[nH]/c(=N\c3ccc(Oc4ccon4)cc3)n(Cc3ccc(Cl)cc3)c2=O)n1` [Compound I-441] as the molecule, how does the IC50 read?
Its IC50 is 69 nM.

How did the IC50 turn out when `Cc1noc(C)c1NC(=O)c1cn(Cc2ccc(Cl)cc2)c(Nc2ccc(Oc3cccc(F)n3)cc2)nc1=O` [Compound I-377] was run?
Its IC50 is 37 nM.

How did the IC50 turn out when `CC(C)c1c[nH]/c(=N\c2ccc(Oc3ccnc(C(=O)O)c3)cc2)n(Cc2ccc(Cl)cc2)c1=O` [Compound I-409] was run?
The IC50 was 24 nM.

`CCn1c(=O)[nH]c(Nc2ccc(Oc3cccc(C(N)=O)n3)cc2)c(Cc2ccc(Cl)cc2)c1=O` [Compound I-458] was tested. Which IC50 did it give?
Its IC50 is 15 nM.

For `COCCn1c(=O)cc(Nc2ccc(Oc3cccc(C#N)n3)c(C)n2)n(Cc2ccc(Cl)cc2)c1=O` [Compound I-322], which IC50 is on record?
The IC50 was 5 nM.

For `O=C(NC[C@@H]1CCCO1)c1cn(Cc2ccc(Cl)cc2)c(Nc2ccc(Oc3cccc(F)n3)cc2)nc1=O` [Compound I-386], which IC50 is on record?
The IC50 was 15 nM.

With `O=C(O)c1cccc(Oc2ccc(/N=c3\[nH]cc(C(F)(F)F)c(=O)n3Cc3ccc(Cl)cc3)cc2)n1` [Compound I-472] as the molecule, how does the IC50 read?
The IC50 was 15 nM.

Which IC50 does the source give for `Cc1c[nH]c2cc(Nc3ncc(NC(=O)C4CCOCC4)c(=O)n3Cc3ccc(Cl)cc3)ccc12` [Compound I-413] here?
Its IC50 is 897 nM.

For `O=C(N[C@H]1COC[C@@H]1O)c1cn(Cc2ccc(Cl)cc2)c(Nc2ccc(Oc3cccc(F)n3)cc2)nc1=O` [Compound I-394], which IC50 is on record?
Its IC50 is 11 nM.

Which IC50 does the source give for `O=c1c(-c2nnco2)c[nH]/c(=N\c2ccc(Oc3ccon3)cc2)n1Cc1ccc(Cl)cc1` [Compound I-439] here?
The IC50 was 47 nM.

For `CCn1c(=O)[nH]c(Nc2ccc(Oc3cccc(C(=O)O)n3)cc2)c(Cc2ccc(Cl)cc2)c1=O` [Compound I-457], which IC50 is on record?
The IC50 was 9 nM.

How did the IC50 turn out when `CCC(=O)Nc1c[nH]/c(=N\c2ccc(Oc3cc(C)c(Cl)nn3)cc2)n(Cc2ccc(Cl)cc2)c1=O` [Compound I-432] was run?
The IC50 was 12 nM.

With `Cc1noc(-c2c[nH]/c(=N\c3ccc(Oc4cccc(C#N)n4)cc3)n(Cc3ccc(Cl)cc3)c2=O)n1` [Compound I-310] as the molecule, how does the IC50 read?
Its IC50 is 16 nM.

`O=c1c(-c2ncno2)c[nH]/c(=N\c2ccc(Oc3ccon3)cc2)n1Cc1ccc(Cl)cc1` [Compound I-449] was tested. Which IC50 did it give?
Its IC50 is 179 nM.

How did the IC50 turn out when `O=C(NCC1CCCCO1)c1cn(Cc2ccc(Cl)cc2)c(Nc2ccc(Oc3cccc(F)n3)cc2)nc1=O` (stereo not shown) [Compound I-388] was run?
The IC50 was 29 nM.

Which IC50 does the source give for `Cc1c[nH]c2ccc(Nc3ncc(NC(=O)C4CCOCC4)c(=O)n3Cc3ccc(Cl)cc3)cc12` [Compound I-414] here?
Its IC50 is 392 nM.

With `Cc1nnc(-c2c[nH]/c(=N\c3ccc(Oc4cccc(C(=O)O)n4)cc3)n(Cc3ccc(Cl)cc3)c2=O)o1` [Compound I-328] as the molecule, how does the IC50 read?
Its IC50 is 11 nM.

How did the IC50 turn out when `Cc1noc(-c2c[nH]/c(=N\c3ccc(Oc4ccc(C(N)=O)nn4)cc3)n(Cc3ccc(Cl)cc3)c2=O)n1` [Compound I-315] was run?
Its IC50 is 10 nM.

For `O=C(NCc1ccccc1)c1c[nH]/c(=N\c2ccc(Oc3ccon3)cc2)n(Cc2ccc(Cl)cc2)c1=O` [Compound I-451], which IC50 is on record?
The IC50 was 104 nM.

For `Cc1nnc(-c2c[nH]/c(=N\c3ccc(Oc4cccc(C(N)=O)n4)cc3)n(Cc3ccc(Cl)cc3)c2=O)o1` [Compound I-329], which IC50 is on record?
Its IC50 is 20 nM.

`COC(=O)c1cccc(Oc2ccc(/N=c3\[nH]cc(C(F)(F)F)c(=O)n3Cc3ccc(Cl)cc3)cc2)n1` [Compound I-471] was tested. Which IC50 did it give?
The IC50 was 683 nM.

For `N#CCNC(=O)c1c[nH]/c(=N\c2ccc(Oc3ccc(F)cn3)cc2)n(Cc2ccc(Cl)cc2)c1=O` [Compound I-426], which IC50 is on record?
Its IC50 is 15 nM.

For `C[C@@H](NC(=O)c1cn(Cc2ccc(Cl)cc2)c(Nc2ccc(Oc3cccc(F)n3)cc2)nc1=O)C(N)=O` [Compound I-443], which IC50 is on record?
Its IC50 is 36 nM.

How did the IC50 turn out when `CCC(=O)Nc1c[nH]/c(=N\c2ccc(Oc3cc(C)cnn3)cc2)n(Cc2ccc(Cl)cc2)c1=O` [Compound I-433] was run?
Its IC50 is 99 nM.

With `O=C(Nc1cc[nH]n1)c1cn(Cc2ccc(Cl)cc2)c(Nc2ccc(Oc3cccc(F)n3)cc2)nc1=O` [Compound I-421] as the molecule, how does the IC50 read?
Its IC50 is 17 nM.
